How the values were obtained:
[1] = molecular target: Norepinephrine transporter (Rattus norvegicus, UniProt Q9WTR4); assay: Binding affinity for norepinephrine transporter (NET) labeled with [3H]nisoxetine
[2] = molecular target: Sodium-dependent dopamine transporter (Rattus norvegicus, UniProt P23977); assay: Binding affinity for dopamine transporter (DAT) labeled with [125 I]RTI-55
[3] = molecular target: Sodium-dependent serotonin transporter (Rattus norvegicus, UniProt P31652); assay: Binding affinity for serotonin transporter labeled with [125 I]RTI-55
Sodium-dependent serotonin transporter, sequence (P31652 whole entry): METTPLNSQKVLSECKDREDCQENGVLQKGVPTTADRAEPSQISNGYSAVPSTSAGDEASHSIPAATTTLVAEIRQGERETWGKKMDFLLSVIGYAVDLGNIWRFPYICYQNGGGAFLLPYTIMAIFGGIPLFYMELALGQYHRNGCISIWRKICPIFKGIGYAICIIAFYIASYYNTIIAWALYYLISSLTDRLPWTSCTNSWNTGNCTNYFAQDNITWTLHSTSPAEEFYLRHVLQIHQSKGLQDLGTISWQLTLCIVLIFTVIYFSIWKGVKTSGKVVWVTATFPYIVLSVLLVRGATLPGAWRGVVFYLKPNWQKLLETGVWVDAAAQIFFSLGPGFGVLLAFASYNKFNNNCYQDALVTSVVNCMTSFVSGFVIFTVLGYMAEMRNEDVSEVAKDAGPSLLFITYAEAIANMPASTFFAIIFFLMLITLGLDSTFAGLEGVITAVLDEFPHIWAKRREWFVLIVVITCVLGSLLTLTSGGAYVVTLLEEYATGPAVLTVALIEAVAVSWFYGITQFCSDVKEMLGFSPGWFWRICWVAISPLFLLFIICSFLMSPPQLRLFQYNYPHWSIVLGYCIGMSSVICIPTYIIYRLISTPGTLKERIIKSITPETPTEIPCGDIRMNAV

Norepinephrine transporter, sequence (Q9WTR4 whole entry): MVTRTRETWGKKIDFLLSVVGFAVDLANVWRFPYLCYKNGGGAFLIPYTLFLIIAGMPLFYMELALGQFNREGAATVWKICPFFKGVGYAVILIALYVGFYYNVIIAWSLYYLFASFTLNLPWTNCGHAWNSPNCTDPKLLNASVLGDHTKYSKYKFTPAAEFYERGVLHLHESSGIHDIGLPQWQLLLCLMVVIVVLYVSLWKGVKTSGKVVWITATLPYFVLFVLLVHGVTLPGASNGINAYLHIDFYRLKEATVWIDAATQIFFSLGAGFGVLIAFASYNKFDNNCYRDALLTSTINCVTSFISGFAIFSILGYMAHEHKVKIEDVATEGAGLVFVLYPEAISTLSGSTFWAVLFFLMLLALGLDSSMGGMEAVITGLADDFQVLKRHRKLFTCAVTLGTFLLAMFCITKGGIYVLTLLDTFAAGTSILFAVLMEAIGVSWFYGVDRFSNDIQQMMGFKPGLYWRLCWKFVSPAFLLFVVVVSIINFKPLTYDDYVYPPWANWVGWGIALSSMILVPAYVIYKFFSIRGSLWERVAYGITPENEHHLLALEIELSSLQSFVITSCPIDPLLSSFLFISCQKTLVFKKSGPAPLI
Sodium-dependent dopamine transporter, sequence (P23977 whole entry): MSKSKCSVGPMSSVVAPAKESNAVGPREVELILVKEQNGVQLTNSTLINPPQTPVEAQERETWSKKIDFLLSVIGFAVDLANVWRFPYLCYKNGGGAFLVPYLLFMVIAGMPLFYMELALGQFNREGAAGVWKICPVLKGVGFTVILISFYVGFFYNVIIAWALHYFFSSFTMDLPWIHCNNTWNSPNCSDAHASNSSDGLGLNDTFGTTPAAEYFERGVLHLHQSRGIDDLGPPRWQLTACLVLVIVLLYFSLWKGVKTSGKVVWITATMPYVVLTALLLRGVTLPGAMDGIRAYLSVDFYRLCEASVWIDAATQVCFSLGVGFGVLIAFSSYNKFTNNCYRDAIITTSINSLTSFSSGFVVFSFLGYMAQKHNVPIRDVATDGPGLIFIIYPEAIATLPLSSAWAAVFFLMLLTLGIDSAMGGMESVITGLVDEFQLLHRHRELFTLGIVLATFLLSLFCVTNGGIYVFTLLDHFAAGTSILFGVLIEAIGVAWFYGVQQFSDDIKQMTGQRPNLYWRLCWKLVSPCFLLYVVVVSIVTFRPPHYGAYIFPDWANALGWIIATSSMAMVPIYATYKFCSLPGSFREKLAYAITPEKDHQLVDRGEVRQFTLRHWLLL

Row | Structure (SMILES) | Ki [1] [nM] | Ki [2] [nM] | Ki [3] [nM]
1 | CN[C@@H]1CC(c2ccc(Cl)c(Cl)c2)c2cccc(OC)c21 (stereo partly specified) | 93 | 32 | 108
2 | CN[C@@H]1CC(c2ccc(Cl)c(Cl)c2)c2cc(OC)c(OC)cc21 (stereo partly specified) | 102 | 3.6 | 61
3 | CN[C@@H]1CC(c2ccc(Cl)c(Cl)c2)c2c(OC)cccc21 (stereo partly specified) | 27 | 1.7 | 63
4 | CN[C@@H]1CC(c2ccc(Cl)c(Cl)c2)c2cc(OC)ccc21 (stereo partly specified) | 76.5 | 9.4 | 6.5
5 | CN[C@@H]1CC(c2ccc(Cl)c(Cl)c2)c2ccc(OC)cc21 (stereo partly specified) | 15 | 11.6 | 1.1
6 | CN[C@@H]1CC(c2ccc(Cl)c(Cl)c2OC)c2ccc(OC)cc21 (stereo partly specified) | 122 | 788 | 5.6
7 | CN[C@H]1c2cc(OC)ccc2C(c2ccc(Cl)c(Cl)c2)[C@@H]1O (stereo partly specified) | 1690 | 1130 | 8.1

— ChEMBL document CHEMBL1133555 (J Med Chem, 2000)
